Assay results published in patent publication US20260193317A1, “COMBINATION THERAPY WITH ACTRIIB RECEPTOR VARIANTS AND GLP-1 AGONISTS” (35PHARMA Inc., priority 2023, published 2026).

Experiments:
Type in all cases: in vivo
[1] = tested on: follicle-stimulating hormone (FSH); experiment: Circulating FSH levels in CD-1 mice; conditions: single s.c. injection, P1229 50 mg/kg, semaglutide 2 mg/kg
Description: Finally, circulating FSH levels were assessed throughout the study (FIG. 20D). […] This confirms that the expected pharmacodynamic effect of P1229 was not altered in the context of the co-formulation.

[2] = Coformulation of P1372 and semaglutide: weight and body composition in mice (FIG. 18)
[3] = Single subcutaneous injection in CD-1 mice: body weight; conditions: CD-1 male mice, single s.c. injection; P1229 50 mg/kg, semaglutide 2 mg/kg
DIO mice = experiment: Body composition in high fat diet mice, alone and in combination with incretin mimetics; conditions: for Fat mass (% change from baseline) / Lean mass (% change from baseline): as E44, NMR
Description: Experiments were performed in vivo to investigate the potential for additive or synergistic effects between exemplary ActRIIB-ECD polypeptide constructs and incretin mimetics.

With semaglutide [reference compound] the “decrease of circulating FSH levels” value [1] was “did not show a significant effect”, the lean muscle mass ([2]; 3 weeks) was “significant loss of lean muscle mass” and the total weight loss ([2]; 3 weeks after treatment) was “significant weight loss”. For the same substance, the body weight [3] was “decreased body weight”, the “Body weight (% change from baseline)” value (DIO mice; DIO mice, 21 days s.c., P1307 20 mg/kg weekly, P1229 40 mg/kg twice weekly, semaglutide 40 μg/kg daily, tirzepatide 45 μg/kg daily, alone or combined) was −17.5% and the “visceral, epididymal, pericardial, peri-renal, and retroperitoneal white adipose tissue weights” value (DIO mice; DIO mice, D21) was “significantly decreased all white adipose tissue weights”. The “gastrocnemius and tibialis anterior weights” value (DIO mice; DIO mice, D21, P1229 with or without caloric restriction) was “no significant effect on muscle weights”, the “Fat mass (% change from baseline)” value (DIO mice) was −30.3% and the “Lean mass (% change from baseline)” value (DIO mice) was −10.6%. For the same substance, the “Fat mass (% change from baseline)” value (DIO mice; listed as semaglutide) was −30.3% and the “Lean mass (% change from baseline)” value (DIO mice; listed as semaglutide) was −10.6%.
